Results: US20090318446A1, “4-(1H-Indol-3-yl)-Pyrimidin-2-Ylamine Derivatives and Their Use in Therapy” (Cyclacel Limited, priority 2005, published 2009)

Experiments:
[1] = molecular target: T1, aurora-A (Homo sapiens, UniProt O14965); assay: Aurora-A (human) kinase assay; assay type: biochemical; conditions: Table 3, values without asterisk; read-out: Kinase inhibition Aurora A
T1 construct: purchased Upstate, Dundee, UK
T1 sequence (O14965 1-403): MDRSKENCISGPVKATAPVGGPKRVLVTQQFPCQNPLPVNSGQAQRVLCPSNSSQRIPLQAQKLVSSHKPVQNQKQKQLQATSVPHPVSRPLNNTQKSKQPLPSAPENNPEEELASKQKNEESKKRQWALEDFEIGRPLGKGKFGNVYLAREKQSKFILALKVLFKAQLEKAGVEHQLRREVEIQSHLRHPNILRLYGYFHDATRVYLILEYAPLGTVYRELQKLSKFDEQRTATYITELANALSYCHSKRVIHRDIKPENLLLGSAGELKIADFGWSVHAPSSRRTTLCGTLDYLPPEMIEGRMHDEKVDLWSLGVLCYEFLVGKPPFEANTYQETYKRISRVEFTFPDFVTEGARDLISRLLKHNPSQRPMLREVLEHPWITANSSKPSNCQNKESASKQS
Description: (§1) This was achieved by measurement of incorporation of radioactive phosphate from ATP into Kemptide substrate (LRRASLG), upon phosphorylation by commercially obtained aurora-A (human, Upstate, Dundee, UK). Assays were performed using 96-well plates and appropriate assay buffers (20 mM Tris, 25 mM β-glycerophosphate, 5 mM EGTA, 1 mM DTT, 1 mM sodium vanadate, pH 7.5), into which were added 2-5 ng of active enzyme with 500 μM substrate (Kemptide). The reactions were initiated by addition of MgATP mix (15 mM MgCl2+100 μM ATP with 15-25 kBq per well of [γ-^32P]-ATP) and mixtures incubated for 30 min at 30° C. Reactions were stopped by addition of an equal volume of 75 mM aq orthophosphoric acid, followed by filtration through p81 filterplates (Whatman Polyfiltronics, Kent, UK). After washing 4 times with 75 mM aq orthophosphoric acid, plates were dried, scintillant added and incorporated radioactivity measured in a scintillation counter (TopCount, Packard Instruments, Pangbourne, Berks, UK). Compounds for kinase assay were made up as 10 mM stocks in DMSO and diluted into 10% DMSO in assay buffer. Data was analysed using curve-fitting software (XLfit version 4.0.2, IDBS, Guildford, Surrey, UK) to determine IC50 values (concentration of test compound which inhibits kinase activity by 50%).

[2] = tested on: Mia-PaCa-2; assay: MTT cytotoxicity assay, Mia-PaCa-2; assay type: cell-based; conditions: Homo sapiens, after incubation
Description: (§2) The compounds of the invention were subjected to a standard cellular proliferation assay using human tumour cell lines obtained from the ATCC (American Type Culture Collection, 10801 University Boulevard, Manessas, Va. 20110-2209, USA). […] C.; Thomas, D. G.; Darling, J. L. Anti Cancer Drugs 1996, 7, 331-8; Loveland, B. E.; Johns, T. G.; Mackay, 1. R.; Vaillant, F.; Wang, Z. X.; Hertzog, P. J. Biochemistry International 1992, 27, 501-10). In short: cells were seeded into 96-well plates according to doubling time and incubated overnight at 37° C. […] MTT was made up as a stock of 5 mg/mL in cell media and filter-sterilised. Media was removed from cells followed by a wash with 200 μL PBS. MTT solution was then added at 20 μL per well and incubated in the dark at 37° C. for 4 h MTT solution was removed and cells again washed with 200 μL PBS. MTT dye was solubilised with 200 μL per well of DMSO with agitation. Absorbance was read at 540 nm and data analysed using curve-fitting software (GraphPad Prism version 3.00 for Windows, GrapbPad Software, San Diego Calif. USA) to determine IC50 values (concentration of test compound which inhibits cell growth by 50%).

[3] = tested on: A2780; assay: MTT cytotoxicity assay, A2780; assay type: cell-based; conditions: Homo sapiens, after incubation
Description: as §2

[4] = molecular target: T2, aurora-B (Homo sapiens, UniProt Q96GD4); assay: Aurora-B (human) kinase assay; assay type: biochemical; conditions: Table 3; read-out: Kinase inhibition Aurora B
T2 construct: purchased Upstate, Dundee, UK
Description: as §1, with “obtained aurora-B” for “obtained aurora-A”, “added 75” for “added 2-5”, “of pre-activated” for “of active”, “for 60” for “for 30”
Aurora-B (human, Upstate, Dundee, UK) was pre-activated immediately prior to kinase assay in appropriate buffers (20 mM Tris, 25 mM β-glycerophosphate, 5 mM EGTA, 1 mM DTT, 1 mM sodium vanadate, pH 7.5) by incubating 15 μg of enzyme with 4 μg INCENP (Upstate, Dundee, UK) in the presence of MgATP mix (15 mM MgCl2+100 μM ATP) for 15 min at 30° C.

T2 sequence (Q96GD4 whole entry): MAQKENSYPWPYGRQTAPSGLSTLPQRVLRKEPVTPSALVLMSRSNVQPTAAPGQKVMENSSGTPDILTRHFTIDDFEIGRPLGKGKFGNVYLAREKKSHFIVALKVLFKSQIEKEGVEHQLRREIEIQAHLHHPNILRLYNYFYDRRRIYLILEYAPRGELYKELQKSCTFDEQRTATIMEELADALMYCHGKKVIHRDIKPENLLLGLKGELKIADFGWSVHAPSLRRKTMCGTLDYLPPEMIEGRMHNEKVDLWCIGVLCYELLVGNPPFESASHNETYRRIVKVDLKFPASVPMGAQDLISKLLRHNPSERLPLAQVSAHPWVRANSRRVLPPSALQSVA

Compound | IC50 [1] | further results
COc1cc(Nc2nccc(-c3c[nH]c4ccccc34)n2)cc(OC)c1 [Compound 14, N-(3,5-dimethoxyphenyl)-4-(1H-indol-3-yl)pyrimidin-2-amine] | 563 nM | 
Cn1cc(-c2ccnc(Nc3ccc(N4CCOCC4)cc3)n2)c2ccccc21 [Compound 15, 4-(1-methyl-1H-indol-3-yl)-N-(4-morpholin-4-ylphenyl)pyrimidin-2-amine] | 370 nM | 
c1ccc2c(-c3ccnc(Nc4ccc5c(c4)OCO5)n3)c[nH]c2c1 [Compound 17, N-1,3-benzodioxol-5-yl-4-(1H-indol-3-yl)pyrimidin-2-amine] | 742 nM | 
O=C(C1CC1)n1cc(-c2ccnc(Nc3ccc(N4CCOCC4)cc3)n2)c2ccccc21 [Compound 18, 4-[1-(cyclopropylcarbonyl)-1H-indol-3-yl]-N-(4-morpholin-4-ylphenyl)pyrimidin-2-amine] | 3360 nM | 
CC(=O)n1cc(-c2ccnc(Nc3ccc(N4CCOCC4)cc3)n2)c2ccccc21 [Compound 19, 4-(1-acetyl-1H-indol-3-yl)-N-(4-morpholin-4-ylphenyl)pyrimidin-2-amine] | 2190 nM | 
CN1CCN(c2ccc(Nc3nccc(-c4c[nH]c5ccccc45)n3)cc2)CC1 [Compound 20, 4-(1H-indol-3-yl)-N-(4-methylpiperazin-1-ylphenyl)pyrimidin-2-amine] | 434 nM | 
CC(=O)N1CCN(c2ccc(Nc3nccc(-c4c[nH]c5c(Cl)cccc45)n3)cc2)CC1 [Compound 25] | 559 nM | 
Cc1cc(Nc2nccc(-c3c[nH]c4ccccc34)n2)ccc1N1CCSCC1 [Compound 28, 4-(1H-indol-3-yl)-N-(3-methyl-4-thiomorpholin-4-ylphenyl)pyrimidin-2-amine] | 856 nM | IC50 [4]: 636 nM
C[C@@H]1CN(c2ccc(Nc3nccc(-c4c[nH]c5ccccc45)n3)cc2)C[C@H](C)O1 [Compound 29, 4-(1H-indol-3-yl)-N-[(2R,6S)-2,6-dimethylmorpholin-4-ylphenyl]pyrimidin-2-amine] | 386 nM | 
C[C@H]1CN(c2ccc(Nc3nccc(-c4c[nH]c5ccccc45)n3)cc2)C[C@H](C)O1 [Compound 30, 4-(1H-indol-3-yl)-N-[(2S,6S)-2,6-dimethylmorpholin-4-ylphenyl]pyrimidin-2-amine] | 1250 nM | 
CC1CC(C)CN(c2ccc(Nc3nccc(-c4c[nH]c5ccccc45)n3)cc2)C1 (stereo not shown) [Compound 31, 4-(1H-indol-3-yl)-N-(3,5-dimethylpiperidin-1-ylphenyl)pyrimidin-2-amine] | 4510 nM | 

Stronger by IC50 [1], values ahead:

IC50 [1] | Compound | further results
235 nM | CC(=O)N1CCN(c2ccc(Nc3nccc(-c4cn(C)c5ccccc45)n3)cc2)CC1 [Compound 16, 4-(1-methyl-1H-indol-3-yl)-N-(4-acetylpiperazine-1-ylphenyl)pyrimidin-2-amine] | 
234 nM | COc1cccc2c(-c3ccnc(Nc4ccc(N5CCN(C(C)=O)CC5)cc4)n3)c[nH]c12 [Compound 21, 4-(7-methoxy-1H-indol-3-yl)-N-(4-acetylpiperazin-1-ylphenyl)pyrimidin-2-amine] | IC50 [2]: 1040 nM
210 nM | COc1ccc2c(-c3ccnc(Nc4ccc(N5CCN(C(C)=O)CC5)cc4)n3)c[nH]c2c1 [Compound 24] | IC50 [2]: 723 nM; IC50 [3]: 576 nM
194 nM | CC(=O)N1CCN(c2ccc(Nc3nccc(-c4c[nH]c5cc(F)ccc45)n3)cc2)CC1 [Compound 26] | IC50 [4]: 175 nM
276 nM | CC(=O)N1CCN(c2ccc(Nc3nccc(-c4c[nH]c5ccccc45)n3)cc2C)CC1 [Compound 27, 4-(1H-indol-3-yl)-N-[(4-acetylpiperazin-1-yl)-3-methylphenyl]pyrimidin-2-amine] | IC50 [4]: 365 nM
